For assay [1], the target named is Mast/stem cell growth factor receptor Kit (Homo sapiens) (UniProt P10721). In words: Inhibition of human recombinant KIT at 40 nM in presence of ATP by radiometric assay relative to control.
Assay [2] has as its target SRSF protein kinase 3 (Homo sapiens) (UniProt Q9UPE1). In words: Inhibition of human recombinant MSSK1 at 40 nM related to control ULK1.
The target in assay [3] is Cyclin-dependent kinase 4 (Homo sapiens) (UniProt P11802). The experiment in a line: Inhibition of human recombinant CDK4 at 40 nM in presence of ATP by radiometric assay relative to control.
Cyclin-dependent kinase 4 (Homo sapiens), sequence (P11802 whole entry): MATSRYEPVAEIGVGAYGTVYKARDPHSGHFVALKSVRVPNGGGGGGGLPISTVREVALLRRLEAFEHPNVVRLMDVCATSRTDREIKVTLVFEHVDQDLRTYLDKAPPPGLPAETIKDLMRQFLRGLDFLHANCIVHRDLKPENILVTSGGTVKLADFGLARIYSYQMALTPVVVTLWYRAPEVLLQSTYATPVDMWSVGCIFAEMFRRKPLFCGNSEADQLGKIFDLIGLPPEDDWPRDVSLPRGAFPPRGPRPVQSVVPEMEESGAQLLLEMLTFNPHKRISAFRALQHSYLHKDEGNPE
The target in assay [4] is Mitogen-activated protein kinase 10 (Homo sapiens) (UniProt P53779). The experiment in a line: Inhibition of human recombinant JNK3 at 40 nM related to control ULK1.
In assay [5] the target is Calcium/calmodulin-dependent protein kinase type 1D (Homo sapiens) (UniProt Q8IU85). The experiment in a line: Inhibition of human recombinant CaMK1d at 40 nM in presence of ATP by radiometric assay relative to control.
Calcium/calmodulin-dependent protein kinase type 1D (Homo sapiens), sequence (Q8IU85 whole entry, looked up): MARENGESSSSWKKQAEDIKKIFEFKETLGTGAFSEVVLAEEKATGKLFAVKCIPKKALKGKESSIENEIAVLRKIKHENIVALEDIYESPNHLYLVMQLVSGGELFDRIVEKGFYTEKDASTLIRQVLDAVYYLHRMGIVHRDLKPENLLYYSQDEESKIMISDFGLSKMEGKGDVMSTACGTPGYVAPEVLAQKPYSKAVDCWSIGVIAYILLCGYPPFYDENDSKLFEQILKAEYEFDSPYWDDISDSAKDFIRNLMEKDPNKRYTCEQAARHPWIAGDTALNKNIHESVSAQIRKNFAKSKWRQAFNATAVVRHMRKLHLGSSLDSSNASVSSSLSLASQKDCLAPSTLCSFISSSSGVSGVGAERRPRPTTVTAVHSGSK
Assay [6] deals with Serine/threonine-protein kinase pim-3 (Homo sapiens) (UniProt Q86V86). In words: Inhibition of human recombinant PIM3 at 40 nM in presence of ATP by radiometric assay relative to control.
Assay [7] has as its target T1, Serine/threonine-protein kinase NLK (Homo sapiens) (UniProt Q9UBE8).
T1 sequence (whole entry): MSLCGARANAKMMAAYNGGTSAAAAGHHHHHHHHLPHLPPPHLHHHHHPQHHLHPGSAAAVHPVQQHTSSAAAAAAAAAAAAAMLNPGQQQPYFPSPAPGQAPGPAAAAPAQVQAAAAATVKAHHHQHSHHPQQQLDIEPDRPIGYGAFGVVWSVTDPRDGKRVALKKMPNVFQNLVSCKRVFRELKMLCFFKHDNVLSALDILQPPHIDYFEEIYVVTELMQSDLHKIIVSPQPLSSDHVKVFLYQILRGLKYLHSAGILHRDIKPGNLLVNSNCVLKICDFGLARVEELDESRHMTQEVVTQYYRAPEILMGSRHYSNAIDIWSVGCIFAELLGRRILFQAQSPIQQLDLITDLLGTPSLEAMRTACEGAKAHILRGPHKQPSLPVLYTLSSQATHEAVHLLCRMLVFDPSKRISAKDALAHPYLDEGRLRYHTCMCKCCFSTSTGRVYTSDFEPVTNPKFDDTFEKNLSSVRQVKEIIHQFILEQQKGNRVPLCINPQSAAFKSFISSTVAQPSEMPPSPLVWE
In words: Inhibition of human recombinant NLK at 40 nM in presence of ATP by radiometric assay relative to control.

The target in assay [8] is Death-associated protein kinase 3 (Homo sapiens) (UniProt O43293). The experiment in a line: Inhibition of human recombinant DAPK3 at 40 nM in presence of ATP by radiometric assay relative to control.
In assay [9] the target is Tau-tubulin kinase 1 (Homo sapiens) (UniProt Q5TCY1). The experiment in a line: Inhibition of human recombinant TTBK1 at 500 nM related to control ULK1.
The target in assay [10] is Serine/threonine-protein kinase 33 (Homo sapiens) (UniProt Q9BYT3). In words: Inhibition of human recombinant STK33 at 500 nM in presence of ATP by radiometric assay relative to control.
In assay [11] the target is T2, Mitogen-activated protein kinase kinase kinase 7 (Homo sapiens) (UniProt O43318).
T2 sequence (whole entry): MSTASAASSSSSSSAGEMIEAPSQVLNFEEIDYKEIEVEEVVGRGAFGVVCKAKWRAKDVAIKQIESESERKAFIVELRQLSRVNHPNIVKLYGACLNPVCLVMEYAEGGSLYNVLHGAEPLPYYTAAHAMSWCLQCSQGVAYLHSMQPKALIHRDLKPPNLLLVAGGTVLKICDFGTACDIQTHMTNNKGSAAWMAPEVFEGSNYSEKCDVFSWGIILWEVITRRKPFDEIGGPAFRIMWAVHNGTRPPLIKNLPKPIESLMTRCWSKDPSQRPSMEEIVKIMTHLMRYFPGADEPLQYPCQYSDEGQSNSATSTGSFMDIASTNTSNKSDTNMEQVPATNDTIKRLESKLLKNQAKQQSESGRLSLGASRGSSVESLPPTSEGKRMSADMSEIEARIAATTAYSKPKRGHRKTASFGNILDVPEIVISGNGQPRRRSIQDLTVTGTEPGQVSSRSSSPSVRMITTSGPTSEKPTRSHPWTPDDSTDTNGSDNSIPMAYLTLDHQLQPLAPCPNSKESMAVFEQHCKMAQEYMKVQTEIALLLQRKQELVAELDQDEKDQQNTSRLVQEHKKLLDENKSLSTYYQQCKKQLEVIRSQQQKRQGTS
In words: Inhibition of human recombinant TAK1 at 500 nM related to control ULK1.

Assay [12] concerns the target SRSF protein kinase 2 (Homo sapiens) (UniProt P78362). The experiment in a line: Inhibition of human recombinant SRPK2 at 500 nM related to control ULK1.
The target in assay [13] is T3, Phosphorylase b kinase gamma catalytic chain, liver/testis isoform (Homo sapiens) (UniProt P15735).
T3 sequence (whole entry): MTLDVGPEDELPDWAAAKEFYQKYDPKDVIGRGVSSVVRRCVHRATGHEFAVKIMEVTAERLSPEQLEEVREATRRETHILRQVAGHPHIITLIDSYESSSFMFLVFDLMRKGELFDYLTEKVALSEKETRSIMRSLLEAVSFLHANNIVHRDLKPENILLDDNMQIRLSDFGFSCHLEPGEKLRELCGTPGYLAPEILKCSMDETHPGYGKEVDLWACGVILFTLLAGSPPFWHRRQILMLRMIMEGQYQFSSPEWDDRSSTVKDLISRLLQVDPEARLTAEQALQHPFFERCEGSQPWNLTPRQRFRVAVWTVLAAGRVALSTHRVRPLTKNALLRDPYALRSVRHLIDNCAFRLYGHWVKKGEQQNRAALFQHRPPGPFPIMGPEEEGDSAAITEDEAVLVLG
The experiment in a line: Inhibition of human recombinant PHKg2 at 500 nM in presence of ATP by radiometric assay relative to control.

For assay [14], the target named is Macrophage-stimulating protein receptor (Homo sapiens) (UniProt Q04912). In words: Inhibition of human recombinant RON at 15 nM in presence of ATP by radiometric assay relative to control.
Macrophage-stimulating protein receptor (Homo sapiens), sequence (Q04912 25-304 limits assumed): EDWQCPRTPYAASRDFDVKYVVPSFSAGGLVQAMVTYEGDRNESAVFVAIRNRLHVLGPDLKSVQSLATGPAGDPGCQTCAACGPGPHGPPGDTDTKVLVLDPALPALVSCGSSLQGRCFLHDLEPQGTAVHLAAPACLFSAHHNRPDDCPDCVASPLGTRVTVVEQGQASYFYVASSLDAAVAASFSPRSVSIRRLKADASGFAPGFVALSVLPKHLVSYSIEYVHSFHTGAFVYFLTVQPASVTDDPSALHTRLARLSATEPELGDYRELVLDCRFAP
Macrophage-stimulating protein receptor (Homo sapiens), sequence (Q04912 310-1400 limits assumed): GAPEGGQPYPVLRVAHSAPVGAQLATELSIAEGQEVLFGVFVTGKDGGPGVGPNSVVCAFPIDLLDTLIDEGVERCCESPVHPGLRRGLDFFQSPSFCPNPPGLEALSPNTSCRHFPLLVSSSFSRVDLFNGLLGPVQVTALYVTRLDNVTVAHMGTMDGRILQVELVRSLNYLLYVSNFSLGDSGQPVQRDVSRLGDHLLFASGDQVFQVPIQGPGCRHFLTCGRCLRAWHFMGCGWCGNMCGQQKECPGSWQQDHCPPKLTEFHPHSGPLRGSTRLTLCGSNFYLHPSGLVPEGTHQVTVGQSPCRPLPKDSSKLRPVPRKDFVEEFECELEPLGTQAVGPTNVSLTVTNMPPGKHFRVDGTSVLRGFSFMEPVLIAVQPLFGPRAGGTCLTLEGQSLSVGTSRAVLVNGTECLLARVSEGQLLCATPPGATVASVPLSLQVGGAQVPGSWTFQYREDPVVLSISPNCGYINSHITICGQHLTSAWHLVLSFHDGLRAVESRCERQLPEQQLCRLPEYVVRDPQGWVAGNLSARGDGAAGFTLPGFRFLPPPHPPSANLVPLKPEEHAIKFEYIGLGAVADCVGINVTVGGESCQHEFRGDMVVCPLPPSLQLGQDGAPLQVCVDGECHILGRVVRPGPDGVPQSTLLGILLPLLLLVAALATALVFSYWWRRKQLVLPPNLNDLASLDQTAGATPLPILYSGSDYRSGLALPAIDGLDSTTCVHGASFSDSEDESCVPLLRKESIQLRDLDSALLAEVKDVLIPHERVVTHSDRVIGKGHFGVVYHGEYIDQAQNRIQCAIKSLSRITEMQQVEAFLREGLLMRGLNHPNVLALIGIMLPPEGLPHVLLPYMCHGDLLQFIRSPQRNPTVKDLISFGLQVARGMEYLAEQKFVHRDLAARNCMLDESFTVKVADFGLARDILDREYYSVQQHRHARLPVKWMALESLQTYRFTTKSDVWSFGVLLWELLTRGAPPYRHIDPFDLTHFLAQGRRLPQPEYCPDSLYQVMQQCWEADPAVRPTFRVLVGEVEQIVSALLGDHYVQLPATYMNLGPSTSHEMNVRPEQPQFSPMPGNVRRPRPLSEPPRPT
Assay [15] addresses Phosphorylase b kinase gamma catalytic chain, skeletal muscle/heart isoform (Homo sapiens) (UniProt Q16816). The experiment in a line: Inhibition of human recombinant PHKg1 at 15 nM in presence of ATP by radiometric assay relative to control.
In assay [16] the target is Serine/threonine-protein kinase 10 (Homo sapiens) (UniProt O94804). In words: Inhibition of human recombinant LOK at 15 nM related to control ULK1.
Serine/threonine-protein kinase 10 (Homo sapiens), sequence (O94804 whole entry, looked up): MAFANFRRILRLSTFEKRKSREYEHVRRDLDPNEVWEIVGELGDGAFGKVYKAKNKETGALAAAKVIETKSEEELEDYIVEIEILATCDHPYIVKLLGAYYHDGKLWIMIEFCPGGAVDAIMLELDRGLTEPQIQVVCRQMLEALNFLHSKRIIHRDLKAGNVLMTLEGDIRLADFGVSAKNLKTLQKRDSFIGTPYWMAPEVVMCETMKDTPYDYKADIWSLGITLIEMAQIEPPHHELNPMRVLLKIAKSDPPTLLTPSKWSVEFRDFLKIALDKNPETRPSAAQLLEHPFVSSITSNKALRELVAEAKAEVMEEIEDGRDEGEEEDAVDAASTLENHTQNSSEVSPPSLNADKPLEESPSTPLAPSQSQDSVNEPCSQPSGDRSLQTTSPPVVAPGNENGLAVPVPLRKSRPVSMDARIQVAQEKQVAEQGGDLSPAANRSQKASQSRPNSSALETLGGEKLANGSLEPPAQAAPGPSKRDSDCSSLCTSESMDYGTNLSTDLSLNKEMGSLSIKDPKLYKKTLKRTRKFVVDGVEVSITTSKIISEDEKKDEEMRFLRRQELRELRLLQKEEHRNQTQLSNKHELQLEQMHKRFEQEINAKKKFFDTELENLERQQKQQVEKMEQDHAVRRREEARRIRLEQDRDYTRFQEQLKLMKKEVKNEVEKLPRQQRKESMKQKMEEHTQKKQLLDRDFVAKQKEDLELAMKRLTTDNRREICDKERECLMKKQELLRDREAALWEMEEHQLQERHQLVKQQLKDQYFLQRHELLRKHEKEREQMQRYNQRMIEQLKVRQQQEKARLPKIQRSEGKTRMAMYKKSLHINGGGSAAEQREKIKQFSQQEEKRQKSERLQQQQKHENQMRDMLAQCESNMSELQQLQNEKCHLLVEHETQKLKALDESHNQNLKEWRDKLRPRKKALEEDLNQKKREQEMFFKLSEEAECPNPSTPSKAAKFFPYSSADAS
For assay [17], the target named is Serine/threonine-protein kinase 25 (Homo sapiens) (UniProt O00506). In words: Inhibition of human recombinant YSK1 at 15 nM in presence of ATP by radiometric assay relative to control.

Each structure is given as a SMILES string.

SRSF protein kinase 2 (Homo sapiens), sequence (P78362 whole entry, looked up, canonical isoform): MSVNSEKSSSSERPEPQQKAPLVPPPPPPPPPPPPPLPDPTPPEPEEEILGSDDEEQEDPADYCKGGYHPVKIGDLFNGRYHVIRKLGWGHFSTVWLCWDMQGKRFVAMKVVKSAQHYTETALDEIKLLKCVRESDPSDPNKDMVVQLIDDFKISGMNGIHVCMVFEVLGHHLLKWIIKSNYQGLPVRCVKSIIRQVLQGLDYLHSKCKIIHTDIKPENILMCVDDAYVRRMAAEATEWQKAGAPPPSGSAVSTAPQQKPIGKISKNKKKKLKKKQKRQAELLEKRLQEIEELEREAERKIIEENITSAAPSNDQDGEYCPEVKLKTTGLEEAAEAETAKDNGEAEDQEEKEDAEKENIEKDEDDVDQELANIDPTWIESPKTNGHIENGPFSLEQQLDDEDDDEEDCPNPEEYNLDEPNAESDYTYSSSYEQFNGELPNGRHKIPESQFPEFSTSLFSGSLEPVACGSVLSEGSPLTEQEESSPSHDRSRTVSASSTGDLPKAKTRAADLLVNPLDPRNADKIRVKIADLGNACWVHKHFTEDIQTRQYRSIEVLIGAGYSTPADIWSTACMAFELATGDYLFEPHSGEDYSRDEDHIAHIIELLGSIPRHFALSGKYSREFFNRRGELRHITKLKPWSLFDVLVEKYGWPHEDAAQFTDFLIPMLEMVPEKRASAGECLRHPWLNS
Mast/stem cell growth factor receptor Kit (Homo sapiens), sequence (P10721 whole entry): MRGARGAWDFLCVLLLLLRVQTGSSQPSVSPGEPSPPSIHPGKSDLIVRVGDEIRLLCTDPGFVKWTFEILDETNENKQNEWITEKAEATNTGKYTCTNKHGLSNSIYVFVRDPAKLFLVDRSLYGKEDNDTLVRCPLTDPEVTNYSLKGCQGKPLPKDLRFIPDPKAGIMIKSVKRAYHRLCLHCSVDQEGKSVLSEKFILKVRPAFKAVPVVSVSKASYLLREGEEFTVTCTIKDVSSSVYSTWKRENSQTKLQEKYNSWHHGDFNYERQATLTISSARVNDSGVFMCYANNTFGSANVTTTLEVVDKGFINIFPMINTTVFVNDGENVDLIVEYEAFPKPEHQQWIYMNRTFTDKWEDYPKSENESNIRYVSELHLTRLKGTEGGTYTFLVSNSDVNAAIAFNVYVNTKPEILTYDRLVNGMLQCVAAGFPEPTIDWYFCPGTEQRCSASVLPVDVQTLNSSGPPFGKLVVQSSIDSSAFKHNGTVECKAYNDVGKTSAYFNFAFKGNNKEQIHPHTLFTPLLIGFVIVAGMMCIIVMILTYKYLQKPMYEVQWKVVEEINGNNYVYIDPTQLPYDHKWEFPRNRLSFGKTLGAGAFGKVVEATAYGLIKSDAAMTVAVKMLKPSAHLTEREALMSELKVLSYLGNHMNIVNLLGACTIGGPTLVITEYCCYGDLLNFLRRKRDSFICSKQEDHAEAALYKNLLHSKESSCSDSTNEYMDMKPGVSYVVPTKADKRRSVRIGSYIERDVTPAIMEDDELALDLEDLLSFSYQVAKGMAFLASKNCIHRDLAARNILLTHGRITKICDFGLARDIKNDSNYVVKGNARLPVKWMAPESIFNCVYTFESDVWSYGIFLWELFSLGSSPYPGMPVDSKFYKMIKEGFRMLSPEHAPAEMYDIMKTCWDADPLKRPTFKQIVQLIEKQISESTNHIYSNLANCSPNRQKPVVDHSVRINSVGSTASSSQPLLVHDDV

Turning to `O=C(N[C@@H](C1CC1)C(F)(F)F)c1cc(-c2cnn3cc(-c4ccc(F)cc4)cnc23)cs1`, the inhibition in [1] worked out at 0%; in [3] it was 0%; in [5] it was 0%; in assay [6], 0%; in [7], 47%; in assay [8], 8%. Besides, the fold change (FC) in [2] came out at 0.18; in assay [4] it was 0.

`CNC(=O)c1ccccc1Oc1nc(Nc2cc(OC)c(OC)c(OC)c2)ncc1Br`: the fold change (FC) stood at 0.01 in assay [9], 0.03 in assay [11] and 0.07 in assay [12]. The results for the inhibition in assay [10] and in [13] were 4% and 0%, respectively.

For the molecule `CC(C)[C@H](NC(=O)c1cc(-c2cnn3cc(-c4ccc(OCCN5CCCCC5)cc4)cnc23)cs1)C(F)(F)F`, the inhibition in assay [14] came out at 2%; in assay [15], 51%; in assay [17], 0%. In assay [16], the fold change (FC) was found to be 0.

These data come from ChEMBL document CHEMBL5653631, “A Potent and Selective ULK1 Inhibitor Suppresses Autophagy and Sensitizes Cancer Cells to Nutrient Stress” (iScience, 2018).
